Structures are written as SMILES. Like-named read-outs stand apart in the source and are kept apart here.

Assay [1] has as its target mutant cKIT (560-576 and V654A) in GIST430/654 cell line (Homo sapiens (Human), UniProt P10721, DEL560-576/V654A). The assay can be described thus: Cellular testing of cKIT mutant inhibitors: phospho-Y307-cKIT Luminex assay in GIST430/654 cells. It counts as cell-based. Conditions: read-out: GIST 430/654 IC50. The protocol: Assay Principle for Cellular Testing of cKIT Mutant Inhibitors
The GIST430/654 cell line expressing mutated constitutively active cKIT receptor tyrosine kinase ([…]560-576 and V654A) was employed for assessing cellular potency of compounds. Cellular activity of mutant cKIT was determined by the degree of cKIT autophosphorylation at tyrosine 307 using a Luminex-based bead assay. GIST430/654 cells were plated with 25,000 cells per well of a 96-well plate in 100 μl medium (85% IMDM/15% FCS supplemented with 100 nM Imatinib). At the following day compounds were added in a serial dilution for 45 min. Then, cells were lysed with 90 μl lysis buffer (20 mM Hepes pH 7.5, 200 mM NaCl, 1.5 mM MgCl2×6H2O, 0.4 mM EDTA, 1% Triton-X-100, 1% Phosphatase-Inhibitor II, 20 mM D-Glycerolphosphat, 0.1% Protease-Inhibitor Cocktail III, 0.01% Benzonase) und lysates were cleared by centrifugation through a 96-well filter plate (0.65 μm). Samples were incubated with Luminex-beads which were coupled with an anti-total cKIT antibody overnight at 4° C. under gentle agitation. For detection of phospho-Y307-cKIT a phosphospecific antibody and a species-specific PE-labelled secondary antibody were added. The amount of phospho-Y307-cKIT was determined in a Luminex 200 instrument measuring 100 events per well within 60 seconds.
Counts from samples treated with compounds were calculated as percent of control from solvent treated (0.3% DMSO) samples. Dose-response curves were fitted and IC50 values were determined using Genedata Screener software.

For assay [2], the target named is c-Kit(V654A) (Homo sapiens, UniProt P10721, V654A). The assay can be described thus: c-Kit(V654A) assay. The format is biochemical. The protocol:
c-Kit(V654A) (N-terminal GST-tagged, recombinant human c-Kit, amino acids 544-end containing the V654A mutation) is incubated with 8 mM MOPS pH 7.0, 0.2 mM EDTA, 250 μM GGMEDIYEFMGGKKK, 10 mM MgAcetate and [gamma-33P-ATP](specific activity approx. 500 cpm/pmol, concentration 200 μM). The reaction is initiated by the addition of the MgATP mix. After incubation for 40 minutes at room temperature, the reaction is stopped by the addition of 3% phosphoric acid solution. 10 μL of the reaction is then spotted onto a P30 filtermat and washed three times for 5 minutes in 75 mM phosphoric acid and once in methanol prior to drying and scintillation counting.

Setting [3] is: Table 1, cKIT autophosphorylation, compounds 45 min.
Setting [4] is: Table 2, corresponding triazole derivatives.
Setting [5] is: Table 2, isoxazole derivatives presently described.

mutant cKIT (560-576 and V654A) in GIST430/654 cell line, sequence (P10721 other isoform, or with tags, fused parts or gaps V654A/del 1-25/del 560-576 limits assumed): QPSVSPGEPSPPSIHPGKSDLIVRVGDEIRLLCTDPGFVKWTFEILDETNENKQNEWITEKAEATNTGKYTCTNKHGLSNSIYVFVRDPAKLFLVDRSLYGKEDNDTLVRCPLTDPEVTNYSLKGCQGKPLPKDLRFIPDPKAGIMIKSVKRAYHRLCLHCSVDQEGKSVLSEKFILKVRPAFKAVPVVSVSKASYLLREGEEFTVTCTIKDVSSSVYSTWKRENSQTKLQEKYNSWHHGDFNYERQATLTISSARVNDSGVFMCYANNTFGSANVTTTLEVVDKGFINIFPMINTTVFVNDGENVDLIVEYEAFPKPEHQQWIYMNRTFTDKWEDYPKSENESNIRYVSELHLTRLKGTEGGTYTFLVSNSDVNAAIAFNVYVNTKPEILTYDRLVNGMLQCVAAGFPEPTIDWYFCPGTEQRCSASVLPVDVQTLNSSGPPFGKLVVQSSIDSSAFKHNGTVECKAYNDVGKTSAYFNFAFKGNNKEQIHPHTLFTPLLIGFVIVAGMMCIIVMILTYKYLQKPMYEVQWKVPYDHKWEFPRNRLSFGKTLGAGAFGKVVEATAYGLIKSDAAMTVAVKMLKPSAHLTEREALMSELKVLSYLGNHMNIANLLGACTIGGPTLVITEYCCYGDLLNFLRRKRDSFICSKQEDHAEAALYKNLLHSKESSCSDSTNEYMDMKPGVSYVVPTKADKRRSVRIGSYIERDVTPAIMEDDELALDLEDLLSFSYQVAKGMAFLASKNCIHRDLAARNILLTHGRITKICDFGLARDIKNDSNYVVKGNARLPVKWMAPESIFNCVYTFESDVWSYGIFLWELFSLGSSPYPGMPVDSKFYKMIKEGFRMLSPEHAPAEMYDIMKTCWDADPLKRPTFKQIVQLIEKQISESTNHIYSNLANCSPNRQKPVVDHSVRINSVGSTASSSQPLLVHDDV

As for `COc1cc2[nH]nc(-c3cc(-c4ccc(C(=O)N5C[C@H]6COC[C@H]6C5)cc4)no3)c2cc1F` [A220, {4-[5-(5-Fluoro-6-methoxy-1H-indazol-3-yl)-isoxazol-3-yl]-phenyl}-(cis)-tetrahydro-furo[3,4-c]pyrrol-5-yl-methanone], the IC50 in assay [1] (setting [3]) came to 160 nM; in assay [2] (Table 1, 200 μM ATP), 2.2 nM.
In the case of `COCCOc1cc2[nH]nc(-c3cc(-c4ccc(-n5nc(C)ccc5=O)cc4)no3)c2cc1F` [A136, 2-(4-{5-[5-fluoro-6-(2-methoxy-ethoxy)-1H-indazol-3-yl]-isoxazol-3-yl}-phenyl)-6-methyl-2H-pyridazin-3-one], the IC50 was determined as 140 nM in assay [1] (setting [3]) and 5.9 nM in assay [2] (Table 1, 200 μM ATP).
For the compound `COCCOc1cc2[nH]nc(-c3cc(-c4ccc(OCCN5CCN(C)CC5)cc4)no3)c2cc1F` [A133, 5-fluoro-6-(2-methoxyethoxy)-3-(3-{4-[2-(4-methylpiperazin-1-yl)ethoxy]phenyl}-1,2-oxazol-5-yl)-1H-indazole], the IC50 in assay [1] (setting [3]) is 130 nM; in assay [2] (Table 1, 200 μM ATP) it was 1 nM.
Regarding `COCCOc1cc2[nH]nc(-c3cn(-c4ccc(C(=O)N5CCN(C6COC6)CC5)cc4)nn3)c2cc1F` [reference compound], the IC50 stood at 790 nM in assay [1] (setting [4]) and 7.8 nM in assay [2] (setting [4]).
For the compound `COCCOc1cc2[nH]nc(-c3cc(-c4ccc(C(=O)N5CC[C@@H]5C(C)(C)O)nc4)no3)c2cc1F` [A119, (5-{5-[5-fluoro-6-(2-methoxy-ethoxy)-1H-indazol-3-yl]-isoxazol-3-yl}-pyridin-2-yl)-[(R)-2-(1-hydroxy-1-methyl-ethyl)-azetidin-1-yl]-methanone], the IC50 in assay [1] (setting [3]) is 340 nM; in assay [2] (Table 1, 200 μM ATP), 12 nM.
Turning to `COCCOc1cc2[nH]nc(-c3cc(-c4ccc(C(=O)N5CCN(C6COC6)C[C@@H]5C)cc4)no3)c2cc1F` [A191, 5-fluoro-6-(2-methoxyethoxy)-3-(3-{4-[(2S)-2-methyl-4-(oxetan-3-yl)piperazine-1-carbonyl]phenyl}-1,2-oxazol-5-yl)-1H-indazole], the IC50 in assay [1] (setting [3]) worked out at 58 nM; in assay [2] (Table 1, 200 μM ATP), 1.8 nM.
The like results for `COCCOc1cc2[nH]nc(-c3cc(-c4ccc(C(=O)N5CCN(C)C[C@@H]5C)cc4)on3)c2cc1Cl` [A10, 5-chloro-3-(5-{4-[(2S)-2,4-dimethylpiperazine-1-carbonyl]phenyl}-1,2-oxazol-3-yl)-6-(2-methoxyethoxy)-1H-indazole] were, in that order, 180 nM and 1.6 nM.
For `COCCOc1cc2[nH]nc(-c3cc(-c4ccc(C(=O)N5CCC[C@H]5CS(C)(=O)=O)cc4)no3)c2cc1F` [A7, 5-fluoro-3-(3-{4-[(2S)-2-(methanesulfonylmethyl)pyrrolidine-1-carbonyl]phenyl}-1,2-oxazol-5-yl)-6-(2-methoxyethoxy)-1H-indazole], the IC50 in assay [1] (setting [3]) is 40 nM; in assay [2] (Table 1, 200 μM ATP), 0.75 nM.
With `COCCOc1cc2[nH]nc(-c3cc(-c4ccc(C(=O)N5Cc6cnn(C)c6C5)cc4)no3)c2cc1F` [A213, 5-fluoro-6-(2-methoxyethoxy)-3-[3-(4-{1-methyl-1H,4H,5H,6H-pyrrolo[3,4-c]pyrazole-5-carbonyl}phenyl)-1,2-oxazol-5-yl]-1H-indazole], the IC50 was found to be 48 nM in assay [1] (setting [3]) and 0.49 nM in assay [2] (Table 1, 200 μM ATP).
The like results for `CNCC1CCCN1C(=O)c1ccc(-c2cc(-c3n[nH]c4cc(OCCOC)c(F)cc34)on2)cc1` (stereo not drawn) [A222, {[1-(4-{5-[5-fluoro-6-(2-methoxyethoxy)-1H-indazol-3-yl]-1,2-oxazol-3-yl}benzoyl)pyrrolidin-2-yl]methyl}(methyl)amine] were, in that order, 110 nM and 0.52 nM.
Take `COCCOc1cc2[nH]nc(-c3cc(-c4ccc(C5CCN(C)CC5(C)C)cc4)no3)c2cc1F` (stereo not drawn) [A231, 5-fluoro-6-(2-methoxy-ethoxy)-3-{3-[4-(1,3,3-trimethyl-piperidin-4-yl)-phenyl]-isoxazol-5-yl}-1H-indazole]: the IC50 in assay [1] (setting [3]) came out at 52 nM; in assay [2] (Table 1, 200 μM ATP), 0.61 nM.
For the compound `COCCOc1cc2[nH]nc(-c3cc(-c4ccc(N5CC[C@@H]6[C@H]5CCCN6C)cc4)no3)c2cc1F` (relative stereo) [A124, 3-(3-{4-[(cis)-4-methyl-octahydro-1H-pyrrolo[3,2-b]pyridin-1-yl]phenyl}-1,2-oxazol-5-yl)-5-fluoro-6-(2-methoxyethoxy)-1H-indazole], the IC50 is 85 nM in assay [1] (setting [3]) and 0.35 nM in assay [2] (Table 1, 200 μM ATP).
The like results for `COCCOc1cc2[nH]nc(-c3cc(-c4ccc(C(=O)N5CC6(CN(C)C6)C5)cc4)no3)c2cc1F` [A88, 5-fluoro-6-(2-methoxyethoxy)-3-[3-(4-{6-methyl-2,6-diazaspiro[3.3]heptane-2-carbonyl}phenyl)-1,2-oxazol-5-yl]-1H-indazole] were, in that order, 170 nM and 2.3 nM.
The like results for `COCCOc1cc2[nH]nc(-c3cc(-c4ccc(S(C)(=O)=O)cc4)no3)c2cc1Cl` [A15, 5-chloro-3-[3-(4-methanesulfonylphenyl)-1,2-oxazol-5-yl]-6-(2-methoxyethoxy)-1H-indazole] were, in that order, 240 nM and 5.8 nM.
With `COCCOc1cc2[nH]nc(-c3cc(-c4ccc(C(=O)N5C[C@@H]6CS(=O)(=O)C[C@@H]6C5)cc4)no3)c2cc1F` [A217, (cis)-5-(4-{5-[5-fluoro-6-(2-methoxyethoxy)-1H-indazol-3-yl]-1,2-oxazol-3-yl}benzoyl)-hexahydro-1H-2lambda6-thieno[3,4-c]pyrrole-2,2-dione], the IC50 in assay [1] (setting [3]) is 43 nM; in assay [2] (Table 1, 200 μM ATP) it was 0.32 nM.
The like results for `COCCOc1cc2[nH]nc(-c3cc(-c4ccc(C(=O)N5CCN(C)CC5)cc4)no3)c2cc1Cl` [A167, (4-{5-[5-chloro-6-(2-methoxy-ethoxy)-1H-indazol-3-yl]-isoxazol-3-yl}-phenyl)-(4-methyl-piperazin-1-yl)-methanone] were, in that order, 74 nM and 0.4 nM.
For `COCCOc1cc2[nH]nc(-c3cc(-c4ccc(-n5ccccc5=O)cc4)no3)c2cc1F` [A41, 1-(4-{5-[5-Fluoro-6-(2-methoxy-ethoxy)-1H-indazol-3-yl]-isoxazol-3-yl}-phenyl)-1H-pyridin-2-one], the IC50 in assay [1] (setting [3]) came out at 120 nM; in assay [2] (Table 1, 200 μM ATP), 3.1 nM.
For the compound `COCCOc1cc2[nH]nc(-c3cc(-c4ccc(C(=O)N5CCN(C)C[C@@H]5C)cc4)no3)c2cc1F` [A3, 3-(3-{4-[(2S)-2,4-dimethylpiperazine-1-carbonyl]phenyl}-1,2-oxazol-5-yl)-5-fluoro-6-(2-methoxyethoxy)-1H-indazole], the IC50 amounted to 38 nM in assay [1] (setting [3]); 38 nM in assay [1] (setting [5]); 1.4 nM in assay [2] (Table 1, 200 μM ATP); 1.4 nM in assay [2] (setting [5]).
`COCCOc1cc2[nH]nc(-c3cc(-c4ccc(S(=O)(=O)N5CCOCC5)cc4)no3)c2cc1F` [A227, 5-fluoro-6-(2-methoxyethoxy)-3-{3-[4-(morpholine-4-sulfonyl)phenyl]-1,2-oxazol-5-yl}-1H-indazole]: the IC50 in assay [1] (setting [3]) amounted to 170 nM; in assay [2] (Table 1, 200 μM ATP), 3 nM.
Take `COCCOc1cc2[nH]nc(-c3cc(-c4ccc(C(=O)N5CCOCC5)cc4)on3)c2cc1F` [A43, (4-{3-[5-fluoro-6-(2-methoxy-ethoxy)-1H-indazol-3-yl]-isoxazol-5-yl}-phenyl)-morpholin-4-yl-methanone]: the IC50 in assay [1] (setting [3]) stood at 120 nM; in assay [2] (Table 1, 200 μM ATP), 2.2 nM.
For the compound `COCCOc1cc2[nH]nc(-c3cc(-c4ncc(C(=O)N(C)C)s4)no3)c2cc1F` [A92, 2-{5-[5-fluoro-6-(2-methoxyethoxy)-1H-indazol-3-yl]-1,2-oxazol-3-yl}-N,N-dimethyl-1,3-thiazole-5-carboxamide], the IC50 is 360 nM in assay [1] (setting [3]) and 55 nM in assay [2] (Table 1, 200 μM ATP).
In the case of `COCCOc1cc2[nH]nc(-c3cc(-c4ccc(C(=O)N5CCC56COC6)c(F)c4)no3)c2cc1F` [A170, (2-fluoro-4-{5-[5-fluoro-6-(2-methoxy-ethoxy)-1H-indazol-3-yl]-isoxazol-3-yl}-phenyl)-(6-oxa-1-aza-spiro[3.3]hept-1-yl)-methanone], the IC50 stood at 120 nM in assay [1] (setting [3]) and 2.6 nM in assay [2] (Table 1, 200 μM ATP).
The like results for `COCCOc1cc2[nH]nc(-c3cc(-c4ccc(C(=O)N5CC(c6nncn6CCOC)C5)cc4)no3)c2cc1F` [A195, 5-fluoro-6-(2-methoxyethoxy)-3-[3-(4-{3-[4-(2-methoxyethyl)-4H-1,2,4-triazol-3-yl]azetidine-1-carbonyl}phenyl)-1,2-oxazol-5-yl]-1H-indazole] were, in that order, 710 nM and 14 nM.

(Values after US20260042753A1 (Merck Patent GmbH, priority 2019, published 2026).)
